Reference: patent US9441024B2, “Glycosylated polypeptide and drug composition containing said polypeptide” (priority 2011, dated 2016)

Key:
[1] = tested on: growth hormone (GH) production; assay: GH production suppression test with rats; format: in vivo, rat; details: for GH concentration in plasma / GH production suppression activity (in words): rat; for GH concentration in plasma: 1 hour before GRF, blood 5 minutes after GRF, vehicle 861; for GH: rat plasma GH concentration; for GH production suppression activity (in words): s.c., 10 or 100 nmol/kg
Description: As shown in Example 69, the glycosylated polypeptide of the present invention had affinity towards each receptor of SSTR. […] Increase of GH production amount into the blood is thought to cause proliferation or differentiation of cells and activation or suppression of the biosynthetic system in various organs via the paracrine effect of GH, and thereby influence biological reactions. Somatostatin released from the hypothalamus suppresses GH secretion from the anterior pituitary gland into the blood.
. Moreover, GRF (GH releasing hormone, Growth hormone releasing factor) was used as the GH release enhancer. GRF was prepared by dissolving GRF injectable solution (GRF Sumitomo 50 for injection, Lot. 2006C, from Dainippon Sumitomo Pharma Co., Ltd.) in 1 mL of water for injection (Lot. 09H18C, from Fuso Pharmaceutical Industries, Ltd.), and then diluting to 25-folds with saline to obtain 2 μg/mL. As heparin employed as the anticoagulant when collecting blood, Japanese Pharmacopeia heparin sodium injectable solution (Lot. B084, from Mochida Pharmaceutical Co., Ltd.) was used directly as stock solution.
[…]. As the control group, saline without glycosylated polypeptide was similarly administered (vehicle group). Then, i.e. between 5-6 minutes after the administration of the glycosylated form, pentobarbital sodium (somnopentyl, Lot. 0608101, from Kyoritsuseiyaku Corporation) was intraperitoneally administered as a general anesthetic with a glass syringe and an injection needle to give 50 mg/kg. […] […].
. […] By multiplying the results obtained and the dilution ratio, the GH concentration was calculated.

[2] = tested on: rat gastrointestinal obstruction model; assay: Gastrointestinal obstruction model: blood parameters (amylase, LDH, CPK); format: in vivo
Description: This experimental line was carried out as a test line to evaluate the promotion of intestinal fluid absorption or the secretory suppressing action, using the change in the intestinal fluid weight in the jejunum after bowel obstruction as an indicator. Moreover, blood parameters of deviation enzymes amylase (pancreas), lactate dehydrogenase (LDH, liver), and creatine phosphokinase (CPK, skeletal muscle, cardiac muscle etc.) were measured as indicators of tissue disorders.
The present test was consigned to Mitsubishi Chemical Medience Corporation and carried out. […] Anesthesia was introduced with inhalation of 2% isoflurane and laughing gas:oxygen=7:3, and this was maintained throughout the surgery. A median incision was made in the abdomen, and the jejunum at about 10 cm from the musculus suspensorius duodeni was ligated with a surgical suture. Then, the incision site was promptly sutured, and the rats were fasted until compound administration. In the sham treatment group, ligation of the jejunum was not performed, but the treatment of suturing the incision site after a median incision was made in the abdomen was performed.
(§1) Eighteen hours after the gastrointestinal obstruction surgery, this was subcutaneously administered into the dorsal cervix at a dosage of 1 mL/kg with a glass syringe and a 25 G injection needle (all from Terumo Corporation). As the vehicle group, saline without glycosylated polypeptide was similarly administered.
One hour after compound administration, a median incision was made in the abdomen under inhalation anesthesia, and 1.5 mL of blood was collected from the abdominal vena cava.
The measuring methods employed were BG5B, UV-rate, and JSCC methods, respectively.

[3] = tested on: rat gastrointestinal obstruction model; assay: Gastrointestinal obstruction model: intestinal fluid weight of the jejunum; format: in vivo; details: for Intestinal fluid weight: Table 9, rat, 40 μM solution 1 mL/kg s.c. 18 h after ligation, 1 h after administration
Description: Anesthesia was introduced with inhalation of 2% isoflurane and laughing gas:oxygen=7:3, and this was maintained throughout the surgery. A median incision was made in the abdomen, and the jejunum at about 10 cm from the musculus suspensorius duodeni was ligated with a surgical suture. Then, the incision site was promptly sutured, and the rats were fasted until compound administration. In the sham treatment group, ligation of the jejunum was not performed, but the treatment of suturing the incision site after a median incision was made in the abdomen was performed.
as §1
One hour after compound administration, a median incision was made in the abdomen under inhalation anesthesia, and 1.5 mL of blood was collected from the abdominal vena cava. Then, the ligated jejunum on the musculus suspensorius duodeni side was resected. The fluid and blood on the jejunum surface were removed with a paper towel, nerves, blood vessels, and fat attached to the jejunum was removed, this was cut into 6 cm lengths, and wet weight was measured. This was then dried at 36 degrees for 24 hours, and dry weight was measured. The intestinal fluid weight (mg) was calculated by wet weight-dry weight.

SSTR1-SSTR5 = assay: Competitive binding assay, statements over all receptors SSTR1-SSTR5; set-up: species or system Human; details: range over SSTR1-SSTR5, Example 69-1
Description: Competitive binding assay was performed with the method below to calculate receptor binding affinity.
Competitive binding assay was consigned to Ricerca Biosciences, and experiment and data analysis was performed. […] The test substance was used at a concentration of 0.01 nM, 0.1 nM, 1 nM, 10 nM, 100 nM, or 1000 nM, and mixed with the membrane sample into a reaction solution. The incubation condition of the reaction solution was at 25° C. for 4 hours for SSTR2 and at 25° C. for 2 hours for SSTR1, SSTR3, SSTR4, and SSTR5.

[4] = Table 10, blood 1 h after s.c. administration
[5] = blood collected one hour after compound administration, rat gastrointestinal obstruction model

## 29C(disialo)-SRIF28 [Example 13]
[1]; subcutaneous 10 nmol/kg
  GH concentration in plasma: 497 ng/mL
[1]; subcutaneous 100 nmol/kg
  GH concentration in plasma: 88.5 ng/mL

## C[C@@H](O)[C@@H]1NC(=O)[C@H](CCCCN)NC(=O)[C@@H](Cc2c[nH]c3ccccc23)NC(=O)[C@H](Cc2ccccc2)NC(=O)[C@@H](NC(=O)[C@H](N)Cc2ccccc2)CSSC[C@@H](C(=O)N[C@H](CO)[C@@H](C)O)NC1=O [Octreotide]
[2]; [4]
  Amylase activity compared to the vehicle (in words): equivalent to the vehicle
  LDH activity compared to the vehicle (in words): low value compared to the vehicle
[2]; [5]
  Amylase (IU/L): 1732 ± 774 IU/L
  CPK (IU/L): 472 ± 215 IU/L
  LDH (IU/L): 269 ± 141 IU/L
[3]
  Intestinal fluid weight: 693 ± 48 mg

## A9C(disialo)-SRIF28 [Example 3]
[1]; dose 1 nmol/kg
  GH: 577 ng/mL
[1]; dose 10 nmol/kg
  GH: 20 ng/mL

## E12C(disialo)-SRIF28 [Example 4]
[1]; dose 10 nmol/kg
  GH: 10 ng/mL

## K14C(disialo)-SRIF28 [Example 6]
[1]; dose 10 nmol/kg
  GH: 55 ng/mL
[1]
  GH production suppression activity (in words): showed GH production suppression activity

## N5C(disialo)-SRIF28 [Example 2]
[1]; dose 1 nmol/kg
  GH: 969 ng/mL
[1]; dose 10 nmol/kg
  GH: 12 ng/mL

## N19C(disialo)-SRIF28 [Example 10]
[1]; subcutaneous 10 nmol/kg
  GH concentration in plasma: 563 ng/mL
[1]; subcutaneous 100 nmol/kg
  GH concentration in plasma: 1.5 ng/mL

## R13C(disialo)-SRIF28 [Example 5]
[1]; dose 10 nmol/kg
  GH: 136 ng/mL
[1]
  GH production suppression activity (in words): showed GH production suppression activity

## S1-2C(asialo)-SRIF28 [Example 28]
SSTR1-SSTR5
  Affinity towards SSTR1-SSTR5, times higher than S1C(disialo)-SRIF28: 1.7-2.9 folds
[1]; dose 3 nmol/kg
  GH: 997 ng/mL
[1]; dose 10 nmol/kg
  GH: 175 ng/mL
[3]
  Intestinal fluid weight: 566 ± 34 mg
[3]; text on Table 9
  Intestinal fluid weight compared to the vehicle (in words): increase in the intestinal fluid weight compared to the vehicle

## S1C(asialo)-SRIF28 [Example 27]
[1]; dose 1 nmol/kg
  GH: 879 ng/mL
[1]; dose 3 nmol/kg
  GH: 515 ng/mL
[1]; dose 10 nmol/kg
  GH: 146 ng/mL

## S1C(disialo(Bn))-SRIF28 [Example 61]
[1]; dose 10 nmol/kg
  GH: 49 ng/mL

## S1C(disialo(amide))-SRIF28 [Example 60]
[1]; dose 10 nmol/kg
  GH: 14 ng/mL

## S1C(disialo(aminoethylamide))-SRIF28 [Example 59]
[1]; dose 10 nmol/kg
  GH: 314 ng/mL

## S1C(disialo)-D-Trp22-SRIF28 [Example 15]
[1]; dose 0.3 nmol/kg
  GH: 986 ng/mL
[1]; dose 1 nmol/kg
  GH: 335 ng/mL
[1]; dose 3 nmol/kg
  GH: 50 ng/mL
[1]; dose 10 nmol/kg
  GH: 6 ng/mL
[1]; dose 30 nmol/kg
  GH: 2 ng/mL

## S1C(monosialo)-SRIF28 [Example 26]
[1]; dose 10 nmol/kg
  GH: 47 ng/mL
